According to EP2794556B1, “BIS-(ARYL/HETEROARYL)-METHYLENE COMPOUNDS, PHARMACEUTICAL COMPOSITIONS CONTAINING SAME AND THEIR USE FOR TREATING CANCER” (Gleason, James L., priority 2011, dated 2013):

Key:
[1] = tested on: 60 cell panel of human carcinoma cell lines; assay: NCI 60 cell panel, summary in text; format: cell-based
[2] = tested on: HL-60(TB); assay: NCI 60 cell panel
[3] = tested on: RPMI-8226; assay: NCI 60 cell panel
[4] = tested on: SR; assay: NCI 60 cell panel
[5] = tested on: A549/A/TCC; assay: NCI 60 cell panel
[6] = tested on: HOP-62; assay: NCI 60 cell panel
[7] = tested on: NCI-H226; assay: NCI 60 cell panel
[8] = tested on: NCI-H322M; assay: NCI 60 cell panel
[9] = tested on: NCI-H460; assay: NCI 60 cell panel
[10] = tested on: NCI-H522; assay: NCI 60 cell panel
[11] = tested on: HCC-2998; assay: NCI 60 cell panel
[12] = tested on: HCT-116; assay: NCI 60 cell panel
[13] = tested on: HCT-15; assay: NCI 60 cell panel
[14] = tested on: HT29; assay: NCI 60 cell panel
[15] = tested on: SW-620; assay: NCI 60 cell panel
[16] = tested on: SNB-75; assay: NCI 60 cell panel
[17] = tested on: M14; assay: NCI 60 cell panel
[18] = tested on: SK-MEL-2; assay: NCI 60 cell panel
[19] = tested on: UACC-257; assay: NCI 60 cell panel
[20] = tested on: UACC-62; assay: NCI 60 cell panel
[21] = tested on: OVCAR-4; assay: NCI 60 cell panel
[22] = tested on: A498; assay: NCI 60 cell panel
[23] = tested on: ACHN; assay: NCI 60 cell panel
[24] = tested on: SN12C; assay: NCI 60 cell panel
[25] = tested on: TK-10; assay: NCI 60 cell panel
[26] = tested on: PC-3; assay: NCI 60 cell panel
[27] = tested on: DU-145; assay: NCI 60 cell panel
[28] = tested on: MCF7; assay: NCI 60 cell panel
[29] = tested on: T-47D; assay: NCI 60 cell panel
[30] = tested on: MDA-MB-468; assay: NCI 60 cell panel
[31] = tested on: AT84 cells; assay: EdU cell growth assay; details: AT84 cells
Protocol: EdU cell growth assay. Click-iT EdU Alexa Fluor high-throughput imaging (HCS) assay for cell proliferation. HCS assays were performed on AT84 mouse squamous carcinoma cell line (ATCC) following the manufacturer's instruction (Molecular Probes, Invitrogen). […] All samples were in triplicate.

CCC(CC)(c1ccc(OCC(=O)NO)c(C)c1)c1ccc(OCC(O)C(C)(C)C)c(C)c1 (racemic) [JF-B01, N-Hydroxy-2-(4-(3-(4-(2-hydroxy-3,3-dimethylbutoxy)-3-methylphenyl)pentan-3-yl)-2-methylphenoxy)acetamide]
antiproliferative activity ([1]; all cell lines of the panel): antiproliferative activity in all cell lines | full growth inhibition ([1]; melanoma cell lines, 8 out of 9 cell lines): ≤ 7 µM | GI50 ([2]; Homo sapiens, HL-60): 0.944 µM | CC50 ([2]; Homo sapiens, HL-60, read-out: LC50): 8.8 µM | TGI ([2]; Leukemia, HL-60(TB)): 2.93E-6 | GI50 ([3]; Homo sapiens, RPMI-8226): 1.12 µM | CC50 ([3]; Homo sapiens, RPMI-8226, read-out: LC50): 82.5 µM | TGI ([3]; Leukemia, RPMI-8226): 8.68E-6 | GI50 ([4]; Homo sapiens): 1.21 µM | CC50 ([4]; Homo sapiens, read-out: LC50): 24.9 µM | TGI ([4]; Leukemia): 3.91E-6 | GI50 ([5]; Homo sapiens, A549): 3.62 µM | CC50 ([5]; Homo sapiens, A549, read-out: LC50): 40.8 µM | TGI ([5]; Non-Small Cell Lung Cancer, A549/A/TCC): 1.43E-5 | GI50 ([6]; Homo sapiens, HOP-62): 3.69 µM | CC50 ([6]; Homo sapiens, HOP-62, read-out: LC50): 38.3 µM | TGI ([6]; Non-Small Cell Lung Cancer, HOP-62): 1.47E-5 | GI50 ([7]; Homo sapiens, NCI-H226): 1.98 µM | CC50 ([7]; Homo sapiens, NCI-H226, read-out: LC50): 33 µM | TGI ([7]; Non-Small Cell Lung Cancer, NCI-H226): 1.07E-5 | GI50 ([8]; Homo sapiens): 2.86 µM | CC50 ([8]; Homo sapiens, read-out: LC50): 33 µM | TGI ([8]; Non-Small Cell Lung Cancer): 1.08E-5 | GI50 ([9]; Homo sapiens, NCI-H460): 1.6 µM | CC50 ([9]; Homo sapiens, NCI-H460, read-out: LC50): 9.51 µM | TGI ([9]; Non-Small Cell Lung Cancer, NCI-H460): 3.90E-6 | GI50 ([10]; Homo sapiens, NCI-H522): 0.196 µM | CC50 ([10]; Homo sapiens, NCI-H522, read-out: LC50): 19.5 µM | TGI ([10]; Non-Small Cell Lung Cancer, NCI-H522): 5.18E-7 | TGI ([11]; Colon Cancer, HCC-2998): 1.55E-5 | GI50 ([11]; Homo sapiens, HCC 2998): 4.23 µM | CC50 ([11]; Homo sapiens, HCC 2998, read-out: LC50): 41.2 µM | TGI ([12]; Colon Cancer, HCT-116): 1.09E-5 | GI50 ([12]; Homo sapiens, HCT-116): 2.13 µM | CC50 ([12]; Homo sapiens, HCT-116, read-out: LC50): 33.4 µM | TGI ([13]; Colon Cancer, HCT-15): 1.12E-5 | GI50 ([13]; Homo sapiens, HCT-15): 1.94 µM | CC50 ([13]; Homo sapiens, HCT-15, read-out: LC50): 33.6 µM | TGI ([14]; Colon Cancer, HT29): 1.00E-5 | GI50 ([14]; Homo sapiens, HT-29): 1.93 µM | CC50 ([14]; Homo sapiens, HT-29, read-out: LC50): 31.7 µM | TGI ([15]; Colon Cancer, SW-620): 1.25E-5 | GI50 ([15]; Homo sapiens, SW-620): 2.3 µM | CC50 ([15]; Homo sapiens, SW-620, read-out: LC50): 35.4 µM | TGI ([16]; CNS Cancer, SNB-75): 1.90E-5 | GI50 ([16]; Homo sapiens, SNB-75): 0.0482 µM | CC50 ([16]; Homo sapiens, SNB-75, read-out: LC50): 62 µM | GI50 ([17]; Homo sapiens, M14): 2.3 µM | CC50 ([17]; Homo sapiens, M14, read-out: LC50): 16.5 µM | TGI ([17]; Melanoma, M14): 5.33E-6 | GI50 ([18]; Homo sapiens, SK-MEL-2): 1.9 µM | CC50 ([18]; Homo sapiens, SK-MEL-2, read-out: LC50): 30 µM | TGI ([18]; Melanoma, SK-MEL-2): 5.24E-6 | GI50 ([19]; Homo sapiens, UACC-257): 3.34 µM | CC50 ([19]; Homo sapiens, UACC-257, read-out: LC50): 38.8 µM | TGI ([19]; Melanoma, UACC-257): 1.27E-5 | GI50 ([20]; Homo sapiens, UACC-62): 1.68 µM | CC50 ([20]; Homo sapiens, UACC-62, read-out: LC50): 11.5 µM | TGI ([20]; Melanoma, UACC-62): 4.22E-6 | GI50 ([21]; Homo sapiens, OVCAR-4): 1.88 µM | CC50 ([21]; Homo sapiens, OVCAR-4, read-out: LC50): 32 µM | TGI ([21]; Ovarian Cancer, OVCAR-4): 9.44E-6 | GI50 ([22]; Homo sapiens, A498): 4.56 µM | CC50 ([22]; Homo sapiens, A498, read-out: LC50): 45.6 µM | TGI ([22]; Renal Cancer, A498): 2.08E-5 | GI50 ([23]; Homo sapiens): 3.2 µM | CC50 ([23]; Homo sapiens, read-out: LC50): 35.6 µM | TGI ([23]; Renal Cancer): 1.27E-5 | GI50 ([24]; Homo sapiens): 3.87 µM | CC50 ([24]; Homo sapiens, read-out: LC50): 40.3 µM | TGI ([24]; Renal Cancer): 1.59E-5 | GI50 ([25]; Homo sapiens, TK-10): 2.83 µM | CC50 ([25]; Homo sapiens, TK-10, read-out: LC50): 42.8 µM | TGI ([25]; Renal Cancer, TK-10): 1.60E-5 | GI50 ([26]; Homo sapiens, PC-3): 3.04 µM | CC50 ([26]; Homo sapiens, PC-3, read-out: LC50): 41.8 µM | TGI ([26]; Prostate Cancer, PC-3): 1.23E-5 | GI50 ([27]; Homo sapiens, DU-145): 13 µM | CC50 ([27]; Homo sapiens, DU-145, read-out: LC50): 50.6 µM | TGI ([27]; Prostate Cancer, DU-145): 2.56E-5 | TGI ([28]; Breast Cancer, MCF7): 2.70E-6 | GI50 ([28]; Homo sapiens, MCF7): 0.333 µM | CC50 ([28]; Homo sapiens, MCF7, read-out: LC50): 12.8 µM | TGI ([29]; Breast Cancer, T-47D): 6.69E-6 | GI50 ([29]; Homo sapiens, T47D): 2.21 µM | CC50 ([29]; Homo sapiens, T47D, read-out: LC50): 27.1 µM | TGI ([30]; Breast Cancer, MDA-MB-468): 3.53E-6 | GI50 ([30]; Homo sapiens, MDA-MB-468): 1.57 µM | CC50 ([30]; Homo sapiens, MDA-MB-468, read-out: LC50): 7.92 µM | antiproliferative potency, fold less potent than 1,25D [31]: 10 fold
